Reference: the NIST ThermoML archive (doi:10.1016/j.jct.2004.08.004)
Values joined by “and” are separate entries in the source; they are usually repeats but may differ in a detail not shown here. Equal entries are not always repeated.

Conditions: Liquid, Transpiration method

CCCCCCCCCC#N [1-decanenitrile]
Conditions	vapor or sublimation pressure [kPa]
295.2 K	0.00359
298.3 K	0.00484
302.2 K	0.00692
305.6 K	0.00928
308.7 K	0.01188
311.7 K	0.01511
313.1 K	0.01667
315.2 K	0.01966
316.2 K	0.02172
319.2 K	0.02728
322.2 K	0.03317
326.3 K	0.04574

CCCCCCCCCCC#N [1-decylcyanide]
Conditions	vapor or sublimation pressure [kPa]
290.3 K	0.00062
298.2 K	0.00131
305.2 K	0.00255
307.2 K	0.00308
309.2 K	0.00374
310.2 K	0.00402
313.2 K	0.0051
314.2 K	0.00577
319.1 K	0.00834
319.2 K	0.00877
322.1 K	0.01069
322.2 K	0.0113
325.2 K	0.0144
325.3 K	0.01379
327.2 K	0.01646
328.2 K	0.01792
331.3 K	0.02254
332.2 K	0.02447
334.2 K	0.02763
337.2 K	0.03454
337.3 K	0.03505
340.3 K	0.04264

CCCCCCCCCCCCCCC#N [1-tetradecyl cyanide]
Conditions	vapor or sublimation pressure [kPa]
336.2 K	0.00105
339.2 K	0.00137
342.1 K	0.00176
345.2 K	0.00219
348.1 K	0.00287
351.2 K	0.00356
354.2 K	0.00459
357.2 K	0.00567
360.2 K	0.00704
363.2 K	0.00901
366.2 K	0.01122
369.1 K	0.0138
372.1 K	0.017

CCCCCCCCCCCCC#N [dodecanecarbonitrile]
Conditions	vapor or sublimation pressure [kPa]
301.2 K	0.00024
313.3 K	0.00075
318.1 K	0.0012
324.1 K	0.00205
327.2 K	0.0028
330.2 K	0.00364
333.1 K	0.00466
336.2 K	0.00594
339.2 K	0.00754
342.1 K	0.0095
345.2 K	0.01168
348.2 K	0.01466
351.2 K	0.01796
354.2 K	0.02244
357.2 K	0.02764
360.2 K	0.03471
363.2 K	0.04232

CCCCCCCCCCCCCCCCC#N [heptadecanenitrile]
Conditions	vapor or sublimation pressure [kPa]
348.2 K	0.00055
351.2 K	0.00072
354.2 K	0.00093
357.2 K	0.00117
360.2 K	0.00156
363.2 K	0.00201
366.2 K	0.00252
369.1 K	0.00316
372.1 K	0.00402
376.2 K	0.00532
379.2 K	0.00678
382.2 K	0.00824
385.2 K	0.01022

CCCCCCC#N [heptanenitrile]
Conditions	vapor or sublimation pressure [kPa]
280.2 K	0.02893
283.2 K	0.03746
286.2 K	0.04773
289.2 K	0.05977
292.2 K	0.07501
295.2 K	0.09393
298.2 K	0.1138
301.2 K	0.1417
304.2 K	0.1723
307.2 K	0.2092

CCCCCCCCCCCCCCCC#N [hexadecanenitrile]
Conditions	vapor or sublimation pressure [kPa]
345.1 K	0.00096
348.1 K	0.00128
351.2 K	0.00165
354.2 K	0.00212
357.2 K	0.00262
360.2 K	0.00342
363.2 K	0.00434
366.2 K	0.00532
369.2 K	0.00658
372.1 K	0.00826
376.2 K	0.0112
379.2 K	0.0136
382.2 K	0.01642

CCCCCCCCCCCC#N [n-dodecanenitrile]
Conditions	vapor or sublimation pressure [kPa]
298.2 K	0.00052
301.2 K	0.00071
306.1 K	0.00111
312.2 K	0.00186
315.1 K	0.00239
318.2 K	0.00323
319.2 K	0.0036
322.2 K	0.00462
325.2 K	0.0059
328.2 K	0.00742
331.2 K	0.00936
334.2 K	0.0117
337.2 K	0.01464
340.2 K	0.01821
343.2 K	0.02303
346.2 K	0.02783
349.2 K	0.03419
352.3 K	0.04237
355.3 K	0.05317
358.2 K	0.06363
361.2 K	0.07929
364.2 K	0.09431
367.1 K	0.1148

CCCCCCCCC#N [nonanenitrile]
Conditions	vapor or sublimation pressure
285.2 K	0.0039 kPa
286.2 K	0.00449 kPa
288.2 K	0.00519 kPa
290.2 K	0.0064 kPa
291.7 K	0.00714 kPa
293.2 K	0.00797 kPa
295.2 K	0.00992 kPa
296.2 K	0.01052 kPa
298.2 K	0.0124 kPa
299.2 K	0.0135 kPa
301.2 K	0.01585 kPa
302.2 K	0.01722 kPa
304.2 K	0.0198 kPa
305.2 K	0.02231 kPa
307.2 K	0.02482 kPa
308.2 K	0.02855 kPa
310.2 K	0.03154 kPa
311.2 K	0.03619 kPa
313.2 K	0.04037 kPa
316.2 K	0.05039 kPa and 0.05346 kPa
319.2 K	0.06245 kPa
320.2 K	0.06797 kPa
323.2 K	0.08366 kPa

CCCCCCCC#N [octanenitrile]
Conditions	vapor or sublimation pressure
283.2 K	0.01192 kPa
286.2 K	0.0152 kPa
289.2 K	0.01964 kPa
292.2 K	0.02498 kPa
295.2 K	0.03092 kPa
298.2 K	0.03898 kPa
301.2 K	0.04949 kPa and 0.04849 kPa
304.2 K	0.06148 kPa
307.1 K	0.07561 kPa
310.2 K	0.09243 kPa and 0.09473 kPa

CCCCCCCCCCCCCC#N [tetradecanenitrile]
Conditions	vapor or sublimation pressure [kPa]
327.2 K	0.00109
330.2 K	0.00139
333.2 K	0.00183
336.2 K	0.00236
339.2 K	0.00306
342.1 K	0.00383
345.2 K	0.00491
348.1 K	0.00628
351.2 K	0.00777
354.2 K	0.00982
357.2 K	0.01221
360.2 K	0.01474
363.2 K	0.01847
366.2 K	0.02305
369.2 K	0.02799
